Test in all cases: NCI tumour cell line growth inhibition, 48 h
Experiment [1] has as its system CAKI-1 renal.
For experiment [2], the system named is EKVX NSCLC.
In experiment [3] the test system is HL-60(TB) leukemia.
The subject of experiment [4] is HS 578T breast.
For experiment [5], the system named is HT29 colon.
Experiment [6] concerns IGROV1 ovarian.
The test system of experiment [7] is NCI/ADR-RES ovarian.
The subject of experiment [8] is SNB-75 CNS.
Experiment [9] has as its system UACC-62 melanoma.
For experiment [10], the system named is CCRF-CEM leukemia.

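Growth conditions: 96-well plates. Treatment: test compound, 48 hours, 5 concentrations. Analysis: linear interpolation between bracketing concentrations; unreached endpoints set to highest concentration. Definition used: TGI = concentration required for complete inhibition of growth.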

`CCn1cc(C(=O)O)c(=O)c2cc(F)c(N3CCN(Cn4c(O)c(N=NC(=O)c5ccncc5)c5cc(Cl)ccc54)CC3)cc21`: the TGI in [1] was 72.8 µM; in experiment [2], above 100 µM; in experiment [3], 37 µM; in [4] it was above 100 µM; in experiment [5] it was above 100 µM; in [6] it was 61.6 µM. Besides, the TGI in [7] was above 100 µM; in experiment [8] it was 70.1 µM; in experiment [9], above 100 µM.

Consider `C=CCOCCCC(=O)C(=[N+]=[N-])C(=O)OC`, for which the TGI in experiment [1], in [10], in experiment [3], in experiment [5], in experiment [6] and in [8] was above 100 µM throughout. This molecule also came in with a TGI in [9] above 100 µM.

Regarding `OC(c1ccc(-c2ccccc2)cc1)(c1ccc(-c2ccccc2)cc1)c1ccc(-c2ccccc2)cc1`, the TGI in experiment [1], in [2], in [4], in [5], in [6] and in [7] was above 100 µM throughout. The molecule further came in with a TGI in experiment [9] above 100 µM.

Take `O=C1CS(=O)(=O)C(c2cccc(Oc3ccccc3)c2)N1c1cccc(Cl)c1Cl` (stereo unspecified): the TGI in experiment [1] was above 100 µM; in experiment [10], above 100 µM; in experiment [2], 83.7 µM; in experiment [3] it was 82.9 µM; in [4], 90 µM; in experiment [5] it was 71.2 µM. Also, the results for the TGI in experiment [8] and in experiment [9] were 92.3 µM and 30.7 µM, respectively.

Take `O=C1CCC(NC(=O)Cc2ccc(O)cc2)C(=O)N1` (stereo unspecified): the TGI in experiment [1], in experiment [2], in [5], in [6], in [8] and in experiment [9] was above 2500 µM each time.

Regarding `O=C1c2scnc2-c2nccc3c2c1nc1ccccc13`, the TGI in experiment [1] is 3.83 µM; in [10], above 100 µM; in experiment [2] it was above 20.2 µM; in experiment [4] it was above 100 µM; in [5], above 19.9 µM; in experiment [6], above 100 µM. Besides, the TGI in experiment [7] was above 100 µM; in [8], 1.92 µM; in experiment [9], 1.45 µM.

Turning to `CO[C@@]12C[C@@H](CNC(=O)c3cc(Br)c[nH]3)O[C@@H]1NC(=O)N2`, the TGI in experiment [1], in experiment [10], in [2], in [4], in experiment [5] and in [6] was above 100 µM each time. For the same molecule, the TGI in experiment [7], in experiment [8] and in experiment [9] was above 100 µM throughout.

On to `COC1CCC(OS(C)(=O)=O)CO1` (stereo unspecified), for which the TGI is 91.7 µM in [10]; above 100 µM in [3]; above 100 µM in [5]; above 100 µM in [6]; above 100 µM in experiment [8]; above 100 µM in [9].

`O=C1c2ccccc2-c2ccc(O)cc21`: the TGI is 37.8 µM in experiment [1]; 37.8 µM in [2]; 75.4 µM in experiment [3]; above 100 µM in experiment [4]; above 100 µM in [5]; 35.9 µM in experiment [6]. For the same molecule, the TGI in experiment [7] was 84.5 µM; in experiment [8], above 100 µM; in experiment [9] it was 30.9 µM.

As for `S=C(NCCCCCCNC(=S)Nc1c2ccccc2nc2ccccc12)Nc1c2ccccc2nc2ccccc12`, the TGI in experiment [1], in experiment [10], in experiment [2], in experiment [3], in experiment [5] and in [6] was above 100 µM throughout. Also, the TGI in [7], in experiment [8] and in [9] was above 100 µM in each case.

Consider `COc1nc(C#CCCCC#N)nc(OC)n1`, for which the TGI is 27.2 µM in experiment [1]; 39.2 µM in experiment [2]; 71.6 µM in experiment [3]; above 100 µM in experiment [4]; above 100 µM in experiment [5]; 41.8 µM in experiment [6]. For the same molecule, the TGI in [7] is above 100 µM; in experiment [8], 75.7 µM; in [9], 22.8 µM.

Regarding `CN(C)CCNc1c([N+](=O)[O-])cc2c3c(cccc13)C(=O)N(CCN(C)C)C2=O`, the TGI is 6.6 µM in experiment [1]; above 100 µM in [10]; 4.37 µM in [2]; 5.53 µM in experiment [3]; 5.03 µM in [5]; 8.17 µM in experiment [6]. In addition, the TGI turned out to be 9.32 µM in [7], 4.18 µM in [8] and 3.35 µM in [9].

In the case of `Cc1c2c(cc3c1[nH]c1ccccc13)C(c1ccc(F)cc1)=NCC2`, the TGI was found to be 4.79 µM in experiment [1]; 7.2 µM in experiment [10]; 9.02 µM in experiment [2]; 1.57 µM in experiment [3]; 4.2 µM in [5]; 3.73 µM in experiment [6]. For the same molecule, the TGI was determined as 2.36 µM in experiment [7], 4.39 µM in experiment [8] and 2.77 µM in experiment [9].

Source of the values: PubChem BioAssay (NCI).
